Data taken from US20240208992A1, “MACROCYCLES AS CFTR MODULATORS” (Idorsia Pharmaceuticals Ltd, priority 2021, published 2024).

Target: human F508del-CFTR (Homo sapiens, UniProt P13569, DEL508-508)
Assay: F508del-CFTR cell surface expression (corrector activity), DiscoveRx ß-galactosidase complementation chemiluminescence assay in recombinant U2OS cell line;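 note: U2OS cells co-expressing ProLink-tagged F508del-CFTR and a membrane-anchored enzyme acceptor, where more surface CFTR restores β-galactosidase activity measured by chemiluminescence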
Conditions: for EC50: EC50, F508del-CFTR cell surface expression, U2OS cells, 16h compound incubation, geomean values; for Emax: in relation to Emax of corrector lumacaftor (=100%), arithmetic mean values

human F508del-CFTR, sequence (P13569 with tags, fused parts or gaps DEL508-508): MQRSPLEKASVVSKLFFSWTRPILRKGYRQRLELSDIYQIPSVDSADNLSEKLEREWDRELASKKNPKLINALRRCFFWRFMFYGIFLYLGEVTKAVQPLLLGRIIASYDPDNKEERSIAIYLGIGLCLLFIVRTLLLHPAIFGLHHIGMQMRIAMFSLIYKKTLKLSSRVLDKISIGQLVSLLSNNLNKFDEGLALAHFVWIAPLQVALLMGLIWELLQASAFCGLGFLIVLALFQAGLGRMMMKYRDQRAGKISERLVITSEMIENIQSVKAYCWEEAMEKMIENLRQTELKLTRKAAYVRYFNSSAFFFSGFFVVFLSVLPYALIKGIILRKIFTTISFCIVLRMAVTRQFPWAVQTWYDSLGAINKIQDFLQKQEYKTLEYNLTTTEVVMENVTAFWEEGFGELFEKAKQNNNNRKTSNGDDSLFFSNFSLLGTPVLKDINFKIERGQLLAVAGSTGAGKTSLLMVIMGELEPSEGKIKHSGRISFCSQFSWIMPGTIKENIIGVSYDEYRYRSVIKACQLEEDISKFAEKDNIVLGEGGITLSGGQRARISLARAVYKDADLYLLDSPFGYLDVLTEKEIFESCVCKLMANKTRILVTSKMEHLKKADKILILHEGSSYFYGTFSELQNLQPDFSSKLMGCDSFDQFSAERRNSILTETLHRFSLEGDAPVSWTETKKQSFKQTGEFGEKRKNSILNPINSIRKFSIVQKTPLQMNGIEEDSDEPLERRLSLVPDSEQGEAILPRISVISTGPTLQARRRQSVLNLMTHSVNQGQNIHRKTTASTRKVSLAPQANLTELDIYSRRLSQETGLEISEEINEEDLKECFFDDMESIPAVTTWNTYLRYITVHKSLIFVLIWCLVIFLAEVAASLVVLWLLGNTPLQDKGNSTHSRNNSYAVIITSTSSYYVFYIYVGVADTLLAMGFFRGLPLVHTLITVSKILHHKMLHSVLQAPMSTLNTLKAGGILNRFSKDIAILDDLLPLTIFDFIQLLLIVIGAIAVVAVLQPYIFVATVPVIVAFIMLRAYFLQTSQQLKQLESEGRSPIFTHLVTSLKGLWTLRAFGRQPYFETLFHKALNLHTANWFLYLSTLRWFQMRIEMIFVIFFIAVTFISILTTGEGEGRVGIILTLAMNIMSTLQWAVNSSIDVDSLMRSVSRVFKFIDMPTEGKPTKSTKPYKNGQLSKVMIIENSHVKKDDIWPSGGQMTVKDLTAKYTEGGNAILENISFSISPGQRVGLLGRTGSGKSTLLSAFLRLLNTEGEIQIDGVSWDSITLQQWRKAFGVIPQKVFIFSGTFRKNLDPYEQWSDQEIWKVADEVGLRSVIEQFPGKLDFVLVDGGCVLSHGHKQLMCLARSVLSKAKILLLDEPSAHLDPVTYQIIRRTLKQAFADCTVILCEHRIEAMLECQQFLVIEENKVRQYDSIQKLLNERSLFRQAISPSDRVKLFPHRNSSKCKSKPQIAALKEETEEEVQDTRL

Structure (SMILES) | EC50 | Emax (U2OS) | Emax
COc1cccc(CCNC(=O)[C@@H]2CC(=O)N(C)[C@@H](CC(C)C)C(=O)N3CCCC[C@@H]3C(=O)N[C@H](Cc3ccccc3)COc3cnc4cccc(F)c4c3C(=O)N2)c1 [Example 535, (9S,13S,19aR,22R)-22-benzyl-6-fluoro-13-isobutyl-N-(3-methoxyphenethyl)-12-methyl-7,11,14,20-tetraoxo-7,8,9,10,11,12,13,14,17,18,19,19a,20,21,22,23-hexadecahydro-16H-pyrido[2′,1′:6,7][1]oxa[4,7,10,14]tetraazacycloheptadecino[17,16-c]quinoline-9-carboxamide] | 407 nM | 424% | 
COc1cccc(CCNC(=O)[C@@H]2CC(=O)N(C)[C@@H](CC(C)C)C(=O)N3CCN(c4ccccc4)C[C@@H]3C(=O)N[C@H](Cc3ccccc3)COc3ccc4nc(C)oc4c3C(=O)N2)c1 [Example 536, (8S,12S,18aR,21R)-21-benzyl-12-isobutyl-N-(3-methoxyphenethyl)-4,11-dimethyl-6,10,13,19-tetraoxo-17-phenyl-6,7,8,9,10,11,12,13,16,17,18,18a,19,20,21,22-hexadecahydro-15H-oxazolo[4′,5′:5,6]benzo[1,2-p]pyrazino[2,1-f][1]oxa[4,7,10,14]tetraazacycloheptadecine-8-carboxamide] | 175 nM | 358% | 
COc1cccc(CCNC(=O)[C@@H]2CC(=O)N(C)[C@@H](CC(C)C)C(=O)N3CC[C@@H](C3)C(=O)N[C@H](Cc3ccccc3)COc3cnc4ccc(F)cc4c3C(=O)N2)c1 [Example 537, (73S,4R,9S,13S)-4-benzyl-16-fluoro-9-isobutyl-N-(3-methoxyphenethyl)-10-methyl-6,8,11,15-tetraoxo-2-oxa-5,10,14-triaza-1(3,4)-quinolina-7(3,1)-pyrrolidinacyclopentadecaphane-13-carboxamide] | 384 nM | 294% | 
COc1cccc(CCNC(=O)[C@@H]2CC(=O)N(C)[C@@H](CC(C)C)C(=O)N3CCN(c4ccccc4)C[C@@H]3C(=O)N[C@H](Cc3ccccc3)COc3ccnc(OC)c3C(=O)N2)c1 [Example 538, (7S,11S,20R,22aR)-20-benzyl-7-isobutyl-14-methoxy-N-(3-methoxyphenethyl)-8-methyl-6,9,13,22-tetraoxo-2-phenyl-1,3,4,6,7,8,9,10,11,12,13,19,20,21,22,22a-hexadecahydro-2H-pyrazino[2,1-f]pyrido[3,4-p][1]oxa[4,7,10,14]tetraazacycloheptadecine-11-carboxamide] | 80 nM | 340% | 
CC(C)C[C@H]1C(=O)N(C)[C@@H](CC2CCC(F)(F)CC2)C(=O)N[C@H](Cc2ccccc2)COc2cnc3ccc(F)cc3c2C(=O)N[C@H](C(=O)NCCc2noc(C3CC3)n2)CC(=O)N1C [Example 539, (3S,7S,10R,13R)-13-benzyl-N-(2-(5-cyclopropyl-1,2,4-oxadiazol-3-yl)ethyl)-10-((4,4-difluorocyclohexyl)methyl)-20-fluoro-7-isobutyl-6,9-dimethyl-1,5,8,11-tetraoxo-1,2,3,4,5,6,7,8,9,10,11,12,13,14-tetradecahydro-[1]oxa[4,7,10,14]tetraazacycloheptadecino[17,16-c]quinoline-3-carboxamide] | 95 nM |  | 391%
CC(C)C[C@H]1C(=O)N(C)[C@@H](CC2CCC(F)(F)CC2)C(=O)N[C@H](Cc2ccccc2)COc2cnc3ccc(F)cc3c2C(=O)N[C@H](C(=O)NCCc2noc(C3CC3)n2)CC(=O)N1C [Example 540, (3S,7S,10S,13R)-13-benzyl-N-(2-(5-cyclopropyl-1,2,4-oxadiazol-3-yl)ethyl)-10-((4,4-difluorocyclohexyl)methyl)-20-fluoro-7-isobutyl-6,9-dimethyl-1,5,8,11-tetraoxo-1,2,3,4,5,6,7,8,9,10,11,12,13,14-tetradecahydro-[1]oxa[4,7,10,14]tetraazacycloheptadecino[17,16-c]quinoline-3-carboxamide] | 269 nM |  | 256%
CC(C)C[C@H]1C(=O)N2CCCC[C@@H]2C(=O)N[C@H](Cc2ccccc2)COc2ccc3ncc(F)cc3c2C(=O)N[C@H](C(=O)NCCc2noc(C3CC3)n2)CC(=O)N1C [Example 541, (9S,13S,19aR,22R)-22-benzyl-N-(2-(5-cyclopropyl-1,2,4-oxadiazol-3-yl)ethyl)-5-fluoro-13-isobutyl-12-methyl-7,11,14,20-tetraoxo-7,8,9,10,11,12,13,14,17,18,19,19a,20,21,22,23-hexadecahydro-16H-pyrido[2′,1′:6,7][1]oxa[4,7,10,14]tetraazacycloheptadecino[16,17-f]quinoline-9-carboxamide] | 185 nM | 357% | 
COc1nccc2c1C(=O)N[C@H](C(=O)NCCc1cc(C)no1)CC(=O)N(C)[C@@H](CC(C)C)C(=O)N1CCN(c3ccccc3)C[C@@H]1C(=O)N[C@H](Cc1ccccc1)CO2 [Example 542, (7S,11S,20R,22aR)-20-benzyl-7-isobutyl-14-methoxy-8-methyl-N-(2-(3-methylisoxazol-5-yl)ethyl)-6,9,13,22-tetraoxo-2-phenyl-1,3,4,6,7,8,9,10,11,12,13,19,20,21,22,22a-hexadecahydro-2H-pyrazino[2,1-f]pyrido[3,4-p][1]oxa[4,7,10,14]tetraazacycloheptadecine-11-carboxamide] | 368 nM | 334% | 
CC(C)C[C@H]1C(=O)N(C)C2(CC2)C(=O)N[C@H](Cc2ccccc2)COc2ccc3ncccc3c2C(=O)N[C@H](C(=O)NCCc2cc(C3CC3)no2)CC(=O)N1C [Example 543, (3′S,7′S,13′R)-13′-benzyl-N-(2-(3-cyclopropylisoxazol-5-yl)ethyl)-7′-isobutyl-6′,9′-dimethyl-1′,5′,8′,11′-tetraoxo-2′,3′,4′,5′,6′,7′,8′,9′,11′,12′,13′,14′-dodecahydro-1′H-spiro[cyclopropane-1,10′-[1]oxa[4,7,10,14]tetraazacycloheptadecino[16,17-f]quinoline]-3′-carboxamide] | 785 nM | 399% | 
CC(C)C[C@H]1C(=O)N(C)C2(CC2)C(=O)N[C@H](Cc2ccccc2)COc2ccc3ncccc3c2C(=O)N[C@H](C(=O)NCCc2noc(C3CC3)n2)CC(=O)N1C [Example 544, (3′S,7′S,13′R)-13′-benzyl-N-(2-(5-cyclopropyl-1,2,4-oxadiazol-3-yl)ethyl)-7′-isobutyl-6′,9′-dimethyl-1′,5′,8′,11′-tetraoxo-2′,3′,4′,5′,6′,7′,8′,9′,11′,12′,13′,14′-dodecahydro-1′H-spiro[cyclopropane-1,10′-[1]oxa[4,7,10,14]tetraazacycloheptadecino[16,17-f]quinoline]-3′-carboxamide] | 774 nM | 398% | 
CC(C)C[C@H]1C(=O)N(C)C2(CC2)C(=O)N[C@H](Cc2ccccc2)COc2ccc3ncc(F)cc3c2C(=O)N[C@H](C(=O)NCCc2cc(C3CC3)no2)CC(=O)N1C [Example 545, (3′S,7′S,13′R)-13′-benzyl-N-(2-(3-cyclopropylisoxazol-5-yl)ethyl)-20′-fluoro-7′-isobutyl-6′,9′-dimethyl-1′,5′,8′,11′-tetraoxo-2′,3′,4′,5′,6′,7′,8′,9′,11′,12′,13′,14′-dodecahydro-1′H-spiro[cyclopropane-1,10′-[1]oxa[4,7,10,14]tetraazacycloheptadecino[16,17-f]quinoline]-3′-carboxamide] | 349 nM | 385% | 
CC(C)C[C@H]1C(=O)N(C)C2(CC2)C(=O)N[C@H](Cc2ccccc2)COc2ccc3ncc(F)cc3c2C(=O)N[C@H](C(=O)NCCc2noc(C3CC3)n2)CC(=O)N1C [Example 546, (3′S,7′S,13′R)-13′-benzyl-N-(2-(5-cyclopropyl-1,2,4-oxadiazol-3-yl)ethyl)-20′-fluoro-7′-isobutyl-6′,9′-dimethyl-1′,5′,8′,11′-tetraoxo-2′,3′,4′,5′,6′,7′,8′,9′,11′,12′,13′,14′-dodecahydro-1′H-spiro[cyclopropane-1,10′-[1]oxa[4,7,10,14]tetraazacycloheptadecino[16,17-f]quinoline]-3′-carboxamide] | 350 nM | 411% | 
Cc1cc(CCNC(=O)[C@@H]2CC(=O)N(C)[C@@H](CC(C)C)C(=O)N(C)[C@H](C(C)C)C(=O)N[C@H](Cc3ccccc3)COc3cnc4ccccc4c3C(=O)N2)on1 [Example 547, (3S,7S,10R,13R)-13-benzyl-7-isobutyl-10-isopropyl-6,9-dimethyl-N-(2-(3-methylisoxazol-5-yl)ethyl)-1,5,8,11-tetraoxo-1,2,3,4,5,6,7,8,9,10,11,12,13,14-tetradecahydro-[1]oxa[4,7,10,14]tetraazacycloheptadecino[17,16-c]quinoline-3-carboxamide] | 281 nM | 330% | 
Cc1cc(CCNC(=O)[C@@H]2CC(=O)N(C)[C@@H](CC(C)C)C(=O)N(C)[C@H](CC(C)C)C(=O)N[C@H](Cc3ccccc3)COc3cnc4ccccc4c3C(=O)N2)on1 [Example 548, (3S,7S,10R,13R)-13-benzyl-7,10-diisobutyl-6,9-dimethyl-N-(2-(3-methylisoxazol-5-yl)ethyl)-1,5,8,11-tetraoxo-1,2,3,4,5,6,7,8,9,10,11,12,13,14-tetradecahydro-[1]oxa[4,7,10,14]tetraazacycloheptadecino[17,16-c]quinoline-3-carboxamide] | 106 nM | 326% | 
COc1cccc(CCNC(=O)[C@@H]2CC(=O)N(C)[C@@H](CC(C)C)C(=O)N3CCN(c4ccccc4)C[C@H]3C(=O)N[C@H](Cc3ccccc3)COc3ccnc(OC)c3C(=O)N2)c1 [Example 549, (7S,11S,20R,22aS)-20-benzyl-7-isobutyl-14-methoxy-N-(3-methoxyphenethyl)-8-methyl-6,9,13,22-tetraoxo-2-phenyl-1,3,4,6,7,8,9,10,11,12,13,19,20,21,22,22a-hexadecahydro-2H-pyrazino[2,1-f]pyrido[3,4-p][1]oxa[4,7,10,14]tetraazacycloheptadecine-11-carboxamide] | 166 nM | 167% | 
